The values below come from patent US20230219898A1, “COMPOUNDS AND METHODS FOR BLOCKING APOPTOSIS AND INDUCING AUTOPHAGY” (President and Fellows of Harvard College, priority 2020, published 2023).

A word on the Kd: it is the equilibrium constant for the complex coming apart. Low values mean tighter binding, high ones weaker binding.

Like-named read-outs stand apart in the source and are kept apart here.

For one test, the target named is T1, TRADD-N (Homo sapiens, UniProt Q15628).
T1 construct: expression constructs encoding Flag-TRADD-N(1-179) and HA-TRADD-C(180-312); His (N); made in house
T1 sequence (Q15628 1-179): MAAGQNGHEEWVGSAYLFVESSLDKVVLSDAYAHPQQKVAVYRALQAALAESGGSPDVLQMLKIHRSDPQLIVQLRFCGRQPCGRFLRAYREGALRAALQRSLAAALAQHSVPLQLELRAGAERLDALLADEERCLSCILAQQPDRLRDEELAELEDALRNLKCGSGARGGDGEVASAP
In words: BIAcore SPR binding to TRADD-N. The settings on record: 25C, steady-state affinity. The protocol:
A series of concentrations of ICCB-19 (ranging from 0.3125 to 10 μM) was used to measure the binding kinetics, with TRADD-N immobilized on the CM5 chip.
The binding affinity between ICCB-19/Apt-1 and TRADD-N was analyzed at 25C on a BIAcore T200 machine with CM5 chips (GE Healthcare). PBS-P buffer (GE Healthcare) was used for all measurements. For surface plasmon resonance (SPR) measurements, Flag-tagged TRADD-N protein was purified from HEK293T cells by anti-Flag affinity gel and eluted by 3×Flag peptide. The protein was further purified by size exclusion chromatograph on a Superdex 75 column (GE Healthcare) in a buffer containing 20 mM imidazole (pH 6.6), 200 mM NaCl, 20 mM DTT. The protein was dialyzed into PBS and diluted to a final concentration of 40 μg/ml in NaOAc buffer (pH 4.5) before immobilization on CM5 chip. ˜5000 response units of protein were immobilized on the chip with a running buffer composed of PBS-P. Reference was used to normalize the response unit (RU) values of protein. A series of compound concentrations ranging from 0.3125 to 10 μM was tested at […] flow rate. The contact time is 100 s and dissociation time is 120 s. When the data collection was finished in each cycle, the sensor surface was regenerated with PBS-P buffer. DMSO solvent correction was performed following the BIAcore T200 Guide.
On the technique in general: Surface plasmon resonance follows binding to a sensor surface in real time, without labels.

For the next test, the system named is Human Jurkat cells. In words: Velcade-induced apoptosis of Jurkat cells, CellTiter-Glo viability. It counts as cell-based. The procedure:
Human Jurkat cells were seeded in 96-well plates (20000 cells per well). Different concentrations of the compounds were added one hour prior to Velcade treatment, followed by the addition of 50 nM Velcade. After incubation for 24 hours, cell viability was measured by CellTiter-Glo Luminescent Cell Viability Assay.
(§1) The rates of cell death were measured in triplicate or quadruplicate in a 96-well or 384-well plate by using SYTOX Green Nucleic Acid Stain (Invitrogen) or ToxiLight Non-destructive Cytotoxicity BioAssay Kit (Lonza). The intensity of luminescence was determined in an EnSpire Multimode Plate Reader (PerkinElmer). Cytotoxicity is expressed as percentages of cell death per well after deducting the background signal in non-induced cells and compared to that of the maximal cell death with 100% Lysis Reagent. The rates of cell viability were determined by using CellTiter-Glo Luminescent Cell Viability Assay (Promega) following the manufacturer's protocol and the results are expressed as percentages of luminescence intensity per well after deducting the background signal in blank well and compared to that of the viability in the non-treated wells. Concentration of drugs used for inducing or inhibiting cell death, mTNFα: 1 ng/ml; 5Z-7-Oxozeaenol: 0.5 μM; Velcade: 50 nM; Apt-1/ICCB-19/ICCB-19i/Nec-1s: 10 μM.
For orientation: ATP-based viability assays read luminescence as a measure of living cells.

Test [1] has as its system MEFs. The test can be described thus: Necroptosis of MEFs induced by TNFα/5z7/zVAD. It counts as cell-based, mouse. As to conditions: 10 μM. The protocol: The concentrations of reagents used: mTNFα: 1 ng/mL; (5Z)-7-oxozeaenol: 0.5 μM; zVAD: 20 μM; ICCB-19: 10 μM; Apt-1: 10 μM; Nec-1s: 10 μM. Mean s.d. from technical triplicates (n=3), representative of 3 independent experiments.

Test [2] has as its system cleaved caspase-3 in Jurkat cells. In words: Cleaved caspase-3 immunoblot in Velcade-treated cells. It counts as cell-based, human. As to conditions: FIG. 9a, 9b; Jurkat and SH-SY5Y cells, 10 μM, 12 h and 24 h. The procedure:
The levels of cleaved caspase-3 were determined by immunoblotting.
Specifically, wild-type MEF cells were pretreated for 1 h with 10 uM of the specified compounds, followed by 2 h treatment with 0.5 uM 5z-7-oxozeaenol and 1 ng/mL TNFα. Cell lysates were prepared and immunoblotted for cleaved-caspase 3 (CC3). Wild-type Jurkat cells were also pretreated for 1 h with 10 uM of the specified compounds, followed by 12 h treatment with 50 nM Velcade. Cell lysates were prepared and immunoblotted for cleaved-caspase 3 (CC3).

Test [3] has as its system MEFs. The test can be described thus: RDA in MEFs induced by mTNFα and 5Z-7-Oxozeaenol, cell survival. It counts as cell-based, mouse. The settings on record: for protection against RDA models: 10 μM; for IC50: Mus musculus, FIG. 5c, mTNFα 1 ng/mL, 5Z-7-Oxozeaenol 0.5 μM, 8 h, read-out: IC50 of inhibition of RDA. The protocol:
as §1

Where [4] appears, read: FIG. 5b, Velcade 50 nM, 24 h, read-out: IC50 of inhibition of Velcade-induced apoptosis.
[5] abbreviates: Table 3, 50 nM Velcade, 24 hours, read-out: Jurkat Velcade IC50/μM.

With `CN1CCN=C1SC(C(=O)NC1CCCCCC1)c1ccccc1` (stereo not drawn) [Compound 30], on TRADD-N, the Kd is 2.17 µM. Besides, the IC50 is roughly 1 µM in the test with Human Jurkat cells (setting [4]), 0.799 µM in the test on Human Jurkat cells (setting [5]) and roughly 1 µM in the test on MEFs [3]. Besides, the inhibition of necroptosis entry in the test with MEFs [1] is on record as “partially inhibited”. The “cleavage of caspase-3 downstream of Velcade-induced proteasomal stress” value in test [2] was “blocked”. Also, the “protection against RDA models” value with MEFs [3] is on record as “protected against multiple RDA models”.
`O=C(CSC1=NCCN1)NC1CCCCCC1` [ICCB-19] came in with a Kd at TRADD-N of 2.3 µM. The IC50 in the test on Human Jurkat cells (setting [4]) is roughly 1 µM; with Human Jurkat cells (Table 1, 50 nM Velcade, 24 hours, read-out: Apoptosis of Jurkat cells induced by Velcade (IC50 μM)), 1.1 µM; in the test with Human Jurkat cells (setting [5]), 1.12 µM; in the test on MEFs [3], roughly 1 µM. Also, the inhibition of necroptosis result with MEFs [1] was “partially inhibited”. Besides, in test [2], the “cleavage of caspase-3 downstream of Velcade-induced proteasomal stress” value is given as “blocked”. In the test with MEFs [3], the “protection against RDA models” value is recorded as “protected against multiple RDA models”.
